Test results from patent US20220056037A1 (SPV THERAPEUTICS INC., priority 2018, published 2022).

Key:
all cell lines tested = test: 2D cell proliferation assay (CellTiter-Blue), geometric mean over the panel; assay type: cell-based; settings: geometric mean of all individual IC50 values of Table 4; read-out: Geomean abs. IC50 value
Procedure: Viability of the cells was analyzed by using the CellTiter-Blue® Cell Viability Assay (Promega), and was performed according to manufacturer's instructions. Briefly, cells were harvested from exponential phase cultures (Chapter 6.6), counted and plated in 96-well flat-bottom microtiter plates at a cell density of 4,000-60,000 cells/well in a volume of 140 μl per well. After a 24 hours recovery period, 10 μL cell culture medium (six control wells/plate) or culture medium with test compound were added (Chapter 6.2). The compounds were applied at five concentrations in full-log increments up to 100 μM in duplicate. Cultures were incubated at 37° C. and 5% CO2 in a humidified atmosphere for another three days. After three days of treatment, 20 μl/well CellTiter-Blue® reagent was added. Following incubation with CellTiter-Blue® reagent for up to four hours, fluorescence (FU) was measured by using the Enspire Multimode Plate Reader (excitation λ=570 nm, emission λ=600 nm). […]
(§1) If an IC50 or IC70 value could not be determined within the examined dose range (because a compound was either too active or lacked activity), the lowest or highest concentration studied was used for calculation of the geometric mean value.
The overall potency of a compound was determined by the geometric mean IC50/IC70 values of all individual IC50/IC70 values. […]

CXF HT-29 = test: 2D cell proliferation assay (CellTiter-Blue); assay type: cell-based; settings: Homo sapiens, 72 h; cell line CXF HT-29; three days of treatment; read-out: IC (abs. IC50)
Procedure: (§2) Viability of the cells was analyzed by using the CellTiter-Blue® Cell Viability Assay (Promega), and was performed according to manufacturer's instructions. Briefly, cells were harvested from exponential phase cultures (Chapter 6.6), counted and plated in 96-well flat-bottom microtiter plates at a cell density of 4,000-60,000 cells/well in a volume of 140 μl per well. After a 24 hours recovery period, 10 μL cell culture medium (six control wells/plate) or culture medium with test compound were added (Chapter 6.2). The compounds were applied at five concentrations in full-log increments up to 100 μM in duplicate. Cultures were incubated at 37° C. and 5% CO2 in a humidified atmosphere for another three days. After three days of treatment, 20 μl/well CellTiter-Blue® reagent was added. Following incubation with CellTiter-Blue® reagent for up to four hours, fluorescence (FU) was measured by using the Enspire Multimode Plate Reader (excitation λ=570 nm, emission λ=600 nm). For calculations, the mean values of duplicate/sextuplicate (untreated control) data were used.
(§3) Drug effects were expressed in terms of the percentage of the fluorescence signal, obtained by comparison of the mean signal in the treated wells with the mean signal of the untreated controls (expressed by the test-versus-control value, T/C-value [%]):
(§4) IC values are reported as relative IC50 values and absolute IC50 and IC70 values. […] The absolute IC70 value gives the concentration of the test compound that achieves T/C=30%. The relative IC50 value is the concentration of test compound that gives a response half way between the top and bottom plateau of the sigmoidal concentration-response curve (inflection point of the curve). Calculation was done by 4parameter non-linear curve fit (Oncotest Data Warehouse Software).
as §1
(§5) The overall potency of a compound was determined by the geometric mean IC50/IC70 values of all individual IC50/IC70 values. In the heatmap representation of IC50 and IC70 values, the distribution of the IC50 or IC70 values obtained for a test compound in the individual cell lines is given in relation to the geometric mean […] or IC70 value, obtained over all PDX models tested. The individual IC values range from 1/32-fold geometric mean IC (corresponding to very potent compound activity or high tumor sensitivity) to 32-fold geometric mean IC (corresponding to lack of compound activity or tumor resistance). The heatmap presentation, therefore, represents an antiproliferative “fingerprint” profile of a test compound.

LXFA A549 = test: 2D cell proliferation assay (CellTiter-Blue); assay type: cell-based; settings: Homo sapiens, 72 h; cell line LXFA A549; three days of treatment; read-out: IC (abs. IC50)
Procedure: as §2, §3, §4, §1, §5

PRXF VCap = test: 2D cell proliferation assay (CellTiter-Blue); assay type: cell-based; settings: Homo sapiens, 72 h; cell line PRXF VCap; three days of treatment; read-out: IC (abs. IC50)
Procedure: as §2, §3, §4, §1, §5

CXF Caco-2 = test: 2D cell proliferation assay (CellTiter-Blue); assay type: cell-based; settings: Homo sapiens, 72 h; cell line CXF Caco-2; three days of treatment; read-out: IC (abs. IC50)
Procedure: as §2, §3, §4, §1, §5

LXFL NCI-H1299 = test: 2D cell proliferation assay (CellTiter-Blue); assay type: cell-based; settings: Homo sapiens, 72 h; cell line LXFL NCI-H1299; three days of treatment; read-out: IC (abs. IC50)
Procedure: as §2, §3, §4, §1, §5

LYXFNH Daudi = test: 2D cell proliferation assay (CellTiter-Blue); assay type: cell-based; settings: Homo sapiens, 72 h; cell line LYXFNH Daudi; three days of treatment; read-out: IC (abs. IC50)
Procedure: as §2, §3, §4, §1, §5

MAXFHER SK-BR-3 = test: 2D cell proliferation assay (CellTiter-Blue); assay type: cell-based; settings: Homo sapiens, 72 h; cell line MAXFHER SK-BR-3; three days of treatment; read-out: IC (abs. IC50)
Procedure: as §2, §3, §4, §1, §5

PAXF BxPC-3 = test: 2D cell proliferation assay (CellTiter-Blue); assay type: cell-based; settings: Homo sapiens, 72 h; cell line PAXF BxPC-3; three days of treatment; read-out: IC (abs. IC50)
Procedure: as §2, §3, §4, §1, §5

MEXF A-375 = test: 2D cell proliferation assay (CellTiter-Blue); assay type: cell-based; settings: Homo sapiens, 72 h; cell line MEXF A-375; three days of treatment; read-out: IC (abs. IC50)
Procedure: as §2, §3, §4, §1, §5

LIXFH Hep G2 = test: 2D cell proliferation assay (CellTiter-Blue); assay type: cell-based; settings: Homo sapiens, HepG2, 72 h; cell line LIXFH Hep G2; three days of treatment; read-out: IC (abs. IC50)
Procedure: as §2, §3, §4, §1, §5

LEXFCL MEC-1 = test: 2D cell proliferation assay (CellTiter-Blue); assay type: cell-based; settings: Homo sapiens, MEC1, 72 h; cell line LEXFCL MEC-1; three days of treatment; read-out: IC (abs. IC50)
Procedure: as §2, §3, §4, §1, §5

[1] = Nonclinical pharmacokinetic study, IV and oral, in rats
Procedure: Nonclinical pharmacokinetic (PK) parameters of lead CDK4/6/9 inhibitors were determined in an intravenous (IV) and oral study (p.o.) conducted in rats. Lead compounds were each administered as a single oral dose at 100 mg/kg or by IV bolus via the caudal vein at the dose of 30 mg/kg. Blood samples were collected at 0.25, 0.5, 1, 2, 4, 8, 12, and 24 hours post i.v. administration, and at 1, 2, 4, 8, 24 and 48 hours post oral administration. Plasma was processed for drug concentration analysis using a validated LCMS/MS method, and PK parameters were calculated by using WinNonlin.

[2] = rats, oral administration, 100 mg/kg, N = 3

Which results are given for `CN1CCN(c2ccc(Nc3ncc4cc(C(=O)N(C)C)n(C56CC(C5)C6)c4n3)cc2)CC1` [SPV113]?
IC50 (all cell lines tested): 391 nM; IC50 (CXF HT-29): 437 nM; IC50 (LXFA A549): 1230 nM; IC50 (PRXF VCap): 15 nM; IC50 (CXF Caco-2): ≥ 100000 nM; IC50 (LXFL NCI-H1299): 1630 nM; IC50 (LYXFNH Daudi): ≤ 10 nM; IC50 (MAXFHER SK-BR-3): 2040 nM; IC50 (PAXF BxPC-3): 193 nM; IC50 (MEXF A-375): 101 nM; IC50 (LIXFH Hep G2): 124 nM; IC50 (LEXFCL MEC-1): ≤ 10 nM; Cmax ([1]; rat, plasma, iv, 30 mg/kg): 6830 ng/mL; clearance ([1]; rat, plasma, iv, 30 mg/kg): 18.7 mL/min/kg; half-life ([1]; rat, plasma, iv, 30 mg/kg): 5.73 h; Cmax ([1]; rat, plasma, po, 100 mg/kg): 2520 ng/mL; MRT ([1]; rat, plasma, po, 100 mg/kg): 25.5 h; BIOAVAILABILITY F ([1]; rats, oral 100 mg/kg vs IV bolus 30 mg/kg): 33.3%; AUC [1, 2]: 33798 ng·h/mL; T1/2 [1, 2]: 6.0 h
